Assay results from ChEMBL document CHEMBL5532729, “Nonsymmetrically Substituted 1,1'-Biphenyl-Based Small Molecule Inhibitors of the PD-1/PD-L1 Interaction” (ACS Med Chem Lett, 2024).

Target: Programmed cell death protein 1/Programmed cell death 1 ligand 1 (Homo sapiens, UniProt Q9NZQ7)
Assay: Inhibition of interaction of PD-1 (unknown origin) expressed in Jurkat T cells co-transfected with NFAT response element/PD-L1 (unknown origin) expressed in CHO-K1 cells by reporter bioassay
Format: cell-based

Programmed cell death protein 1/Programmed cell death 1 ligand 1, sequence (Q15116 whole entry): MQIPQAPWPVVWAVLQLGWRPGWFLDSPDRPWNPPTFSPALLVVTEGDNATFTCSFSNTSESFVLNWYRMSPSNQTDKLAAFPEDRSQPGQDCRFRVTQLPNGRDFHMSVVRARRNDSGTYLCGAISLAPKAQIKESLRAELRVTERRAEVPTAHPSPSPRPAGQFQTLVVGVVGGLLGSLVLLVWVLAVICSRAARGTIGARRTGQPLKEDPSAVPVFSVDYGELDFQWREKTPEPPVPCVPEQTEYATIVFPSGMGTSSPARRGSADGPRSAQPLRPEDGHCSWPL
Programmed cell death protein 1/Programmed cell death 1 ligand 1, sequence (Q9NZQ7 whole entry): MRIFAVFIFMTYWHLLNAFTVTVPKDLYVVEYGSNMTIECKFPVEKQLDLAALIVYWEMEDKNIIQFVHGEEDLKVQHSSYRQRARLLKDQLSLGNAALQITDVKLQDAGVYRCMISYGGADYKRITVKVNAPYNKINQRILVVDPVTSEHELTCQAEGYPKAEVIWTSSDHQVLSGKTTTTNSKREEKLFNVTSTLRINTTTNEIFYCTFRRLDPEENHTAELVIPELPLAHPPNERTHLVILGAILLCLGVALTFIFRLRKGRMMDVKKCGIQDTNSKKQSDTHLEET

With `Cc1c(NC(=O)c2ccc(CNCCO)cn2)cccc1-c1cccc(NC(=O)c2ccc(CNCCO)cn2)c1C` as the compound, how does the EC50 read?
Its EC50 is 17 nM.
